ChEMBL document CHEMBL4627354, “Antifungal polyketide derivatives from the endophytic fungus Aplosporella javeedii” (Bioorg Med Chem, 2020)
Converted amounts (≈) assume the structure as drawn. The source made the active and inactive calls. The rule behind the calls is not given here.

Assays:
[1] = system: Enterococcus faecalis; test: Antibacterial activity against Enterococcus faecalis ATCC 51299 by CLSI broth microdilution method; format: functional, organism-based
[2] = system: Saccharomyces cerevisiae; test: Antifungal activity against Saccharomyces cerevisiae incubated for overnight by disc diffusion method; format: functional, organism-based
[3] = system: Enterococcus faecium; test: Antibacterial activity against Enterococcus faecium ATCC 700221 by CLSI broth microdilution method; format: functional, organism-based
[4] = system: Bacillus subtilis; test: Antibacterial activity against Bacillus subtilis ATCC 169 by CLSI broth microdilution method; format: functional
[5] = system: Staphylococcus aureus; test: Antibacterial activity against methicillin-resistant and […] Staphylococcus aureus ATCC 700699 by CLSI broth microdilution method; format: functional; details: Mu50 ATCC 700699
[6] = system: Escherichia coli; test: Antibacterial activity against Escherichia coli ATCC 25922 by CLSI broth microdilution method; format: functional, organism-based
[7] = system: Staphylococcus aureus; test: Antibacterial activity against Staphylococcus aureus ATCC 29213 by CLSI broth microdilution method; format: functional
[8] = system: Enterococcus faecium; test: Antibacterial activity against Enterococcus faecium ATCC 35667 by CLSI broth microdilution method; format: functional, organism-based
[9] = system: Candida albicans; test: Antifungal activity against hyphae form of Candida albicans ATCC 24433 incubated for overnight by disc diffusion method; format: functional, organism-based
[10] = system: Enterococcus faecalis; test: Antibacterial activity against Enterococcus faecalis ATCC 29212 by CLSI broth microdilution method; format: functional, organism-based
[11] = system: Mycobacterium tuberculosis; test: Antibacterial activity against Mycobacterium tuberculosis H37Rv by CLSI broth microdilution method; format: functional, organism-based
[12] = system: Candida albicans; test: Antifungal activity against hyphae form of Candida albicans ATCC 24433 assessed inhibition of visible microbe growth incubated for overnight by CLSI microbroth dilution method; format: functional
[13] = system: Saccharomyces cerevisiae; test: Antifungal activity against Saccharomyces cerevisiae assessed as diameter of zone inhibition incubated for overnight by disc diffusion method; format: functional
[14] = system: Candida albicans; test: Antifungal activity against hyphae form of Candida albicans ATCC 24433 assessed as diameter of zone inhibition at 1 mM incubated for overnight by disc diffusion method; format: functional; details: read-out: DIZ
[15] = system: THP-1; test: Cytotoxicity against human THP1 cells assessed as reduction in cell viability up to 100 uM measured after 48 hrs by resazurin based fluorescence assay; details: thp-1, 48 h
[16] = Cytotoxicity against human CLS54 cells assessed as reduction in cell viability up to 100 uM measured after 48 hrs by resazurin based fluorescence assay
[17] = system: Candida albicans; test: Fungicidal activity against hyphae form of Candida albicans ATCC 24433 assessed as log reduction in bacterial viability at 400 uM measured after 6 hrs by time kill assay; format: functional
[18] = system: Huh-7; test: Cytotoxicity against human HuH7 cells assessed as reduction in cell viability up to 100 uM measured after 48 hrs by resazurin based fluorescence assay; details: huh-7, 48 h
[19] = system: Candida albicans; test: Fungicidal activity against hyphae form of Candida albicans ATCC 24433 assessed as reduction in bacterial viability at 474 uM measured after 6 hrs by time kill assay; format: functional, organism-based

| SMILES | Activity [1] | Activity [2] | Activity [3] | Activity [4] | Activity [5] | Activity [6] | Activity [7] | Activity [8] | Activity [9] | Activity [10] | Activity [11] | MIC [5] [µM] | MIC [7] [µM] | other results |
| --- | --- | --- | --- | --- | --- | --- | --- | --- | --- | --- | --- | --- | --- | --- |
| Cc1c(CCCC(O)CO)cc(O)c(C=O)c1O (stereo unspecified) | inactive | inactive | inactive | inactive | inactive | inactive | inactive | inactive | inactive | inactive | inactive | – | – | – |
| Cc1c(CCC(=O)O)cc(O)c(C=O)c1O | inactive | inactive | inactive | inactive | – | inactive | – | inactive | inactive | inactive | inactive | 50 (≈ 11.2 µg/mL) | 25 (≈ 5.61 µg/mL) | – |
| CCCCCc1cc(O)c(C=O)c(O)c1C | inactive | – | inactive | – | – | inactive | – | inactive | – | inactive | inactive | 50 (≈ 11.1 µg/mL) | 50 (≈ 11.1 µg/mL) | MIC [12]: 100 µM (≈ 22.2 µg/mL); diameter of the inhibition zone (DIZ) [13]: 18 mm; zone of inhibition at 1000 µM [14]: 8 mm; MIC [4]: 25 µM (≈ 5.56 µg/mL); Activity [15]: Non-Toxic; Activity [16]: Non-Toxic; log(activity) [17]: 3.5; Activity [18]: Non-Toxic |
| CN[C@H]1C[C@@H](N)[C@H](O)[C@@H](O[C@@H]2O[C@H](CO)[C@H](O)[C@@H]3O[C@@]4(O[C@H]23)O[C@H]([C@H](N)CO)[C@H](O)[C@H](O)[C@H]4O)[C@@H]1O | – | – | – | – | – | – | – | – | – | – | – | – | – | Activity [19]: Active |
| Cc1c(CCCCCO)cc(O)c(C=O)c1O | inactive | inactive | inactive | inactive | inactive | inactive | inactive | inactive | inactive | inactive | inactive | – | – | – |
| Cc1c(CCCCC(=O)O)cc(O)c(C=O)c1O | inactive | inactive | inactive | inactive | inactive | inactive | inactive | inactive | inactive | inactive | inactive | – | – | – |
